GI50 and TGI data for twelve compounds are collected here from PubChem BioAssay (NCI).

Values joined by “and” are separate entries in the source; they are usually repeats but may differ in a detail not shown here. Equal entries are not always repeated.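 96-well plates; 48 h exposure; 5 concentrations. Endpoints by linear interpolation between flanking doses. Not reached: highest tested concentration assigned. GI50 = concentration required for 50% inhibition of growth. TGI is the concentration that stops growth completely.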

Some test systems named below: A549 NSCLC; COLO 205 colon; EKVX NSCLC; HCC-2998 colon; HCT-116 colon; HCT-15 colon; HOP-92 NSCLC; HT29 colon; MOLT-4 leukemia; RPMI-8226 leukemia; SF-268 CNS; SF-295 CNS; SW-620 colon; UACC-62 melanoma; UO-31 renal.
Holding throughout (assay): NCI anticancer screen, dose series, 48 h

On to `COc1cc(C2c3cc4c(cc3[C@@H](NCCCN(C)C)[C@H]3COC(=O)C23)OCO4)cc(OC)c1O` (stereo not given in full), for which the GI50 in the assay on A549 NSCLC is 0.03 µM; in the assay with COLO 205 colon, 0.714 µM and 1.94 µM; with HOP-92 NSCLC, 0.0952 µM and 0.482 µM; with SF-268 CNS it was 0.202 µM and 0.591 µM; with UACC-62 melanoma it was 0.112 µM and 0.288 µM. Moreover, the TGI in the assay on A549 NSCLC was 0.712 µM; in the assay with COLO 205 colon it was 3.93 µM and 5.78 µM; in the assay on EKVX NSCLC, 1.58 µM and 1.29 µM; in the assay with HCC-2998 colon, 1.48 µM and 1.35 µM; with HCT-116 colon it was 6.14 µM; in the assay on HCT-15 colon, 1.69 µM and 4.63 µM. Besides, the TGI in the assay on HOP-92 NSCLC is 0.368 µM and 1.85 µM; with HT29 colon it was > 37.5 µM and 6.09 µM; in the assay on MOLT-4 leukemia, 0.21 µM; with RPMI-8226 leukemia, > 37.5 µM and 5.49 µM; in the assay with SF-268 CNS, 1.51 µM and 7.28 µM; in the assay on SF-295 CNS it was 0.632 µM and 1.42 µM. The TGI in the assay on SW-620 colon is 1.18 µM and 4.27 µM; in the assay on UACC-62 melanoma, 0.643 µM and 0.924 µM; with UO-31 renal, 1.1 µM and 1.72 µM.

With `Nc1nc(Cl)cc(NCCCCCCCCCCCCNc2cc(Cl)nc(N)n2)n1`, the TGI in the assay with A549 NSCLC, with COLO 205 colon, with EKVX NSCLC, with HCC-2998 colon, with HCT-116 colon and in the assay with HCT-15 colon was greater than 100 µM in each case. The TGI was 19.3 µM in the assay on HOP-92 NSCLC; greater than 100 µM in the assay on HT29 colon; greater than 100 µM in the assay with MOLT-4 leukemia; greater than 100 µM with RPMI-8226 leukemia; greater than 100 µM in the assay on SF-268 CNS; 32.7 µM in the assay with SF-295 CNS. For the same compound, the TGI with SW-620 colon, in the assay with UACC-62 melanoma and in the assay on UO-31 renal was greater than 100 µM each time.

As for `ClCc1ccc2ccc3ccc(CCl)nc3c2n1`, the TGI in the assay on A549 NSCLC was greater than 42.2 µM; with COLO 205 colon, 3.15 µM; with EKVX NSCLC, greater than 47.5 µM; with HCC-2998 colon it was 8.59 µM; in the assay on HCT-116 colon, 3.44 µM; with HCT-15 colon, 4.69 µM. The TGI in the assay on HOP-92 NSCLC was found to be 3.63 µM; in the assay on HT29 colon it was 6.28 µM; with MOLT-4 leukemia, 4.02 µM; in the assay on RPMI-8226 leukemia it was 13.1 µM; in the assay on SF-268 CNS it was 55 µM; in the assay on SF-295 CNS it was 5.69 µM. Besides, the TGI stood at 7.79 µM in the assay with SW-620 colon, 2.64 µM in the assay with UACC-62 melanoma and 3.21 µM in the assay on UO-31 renal.

For the compound `CC[C@](C)(O)C(=O)O[C@H]1C(=O)O[C@@H]2C[C@H]3C(C)=C[C@H](O)[C@@H](O)[C@]3(C)[C@H]3[C@@]4(O)OC[C@]32[C@@H]1[C@@H](C)[C@H]4O`, the TGI in the assay with A549 NSCLC amounted to 292 µM; in the assay on COLO 205 colon, 86.1 µM; in the assay on EKVX NSCLC, 50.3 µM; in the assay with HCC-2998 colon, 71.4 µM; with HCT-116 colon, 89.2 µM; with HCT-15 colon, 221 µM. For the same compound, the TGI in the assay with HOP-92 NSCLC was found to be 83.1 µM; in the assay with HT29 colon, 120 µM; with MOLT-4 leukemia, 27.5 µM; in the assay on RPMI-8226 leukemia it was 24.4 µM; in the assay on SF-268 CNS, 207 µM; in the assay on SF-295 CNS, 116 µM. Moreover, the TGI with SW-620 colon came out at 61.7 µM; with UACC-62 melanoma, 94.2 µM; in the assay with UO-31 renal, 284 µM.

In the case of `CCCCCCCSCC1C(=O)C23C(O)C1CCC2C12COC3(O)C(O)C1C(C)(C)CCC2O` (stereo not given), the TGI in the assay with A549 NSCLC is 39.3 µM; in the assay on COLO 205 colon, 15.1 µM; with EKVX NSCLC it was 32.9 µM; in the assay with HCC-2998 colon, 31.4 µM; in the assay on HCT-116 colon, 18.7 µM; in the assay with HCT-15 colon, 22.4 µM. The TGI amounted to 31.8 µM in the assay with HOP-92 NSCLC; 30 µM in the assay on HT29 colon; 28.2 µM with MOLT-4 leukemia; 27.3 µM in the assay with RPMI-8226 leukemia; 33.9 µM in the assay with SF-268 CNS; 33.4 µM in the assay with SF-295 CNS. Besides, the figures for the TGI in the assay on SW-620 colon, in the assay on UACC-62 melanoma and in the assay with UO-31 renal were 3.23 µM, 24 µM and 23.5 µM, respectively.

Regarding `CC(=O)c1cccc(NC(=O)C(=O)C(C(=O)c2ccccc2F)C2OC(=O)c3ccccc32)c1` (stereo not given), the TGI was greater than 100 µM in the assay with A549 NSCLC; 41.9 µM with COLO 205 colon; greater than 100 µM with EKVX NSCLC; 53.9 µM in the assay with HCC-2998 colon; 88.6 µM in the assay on HCT-116 colon; greater than 100 µM in the assay with HCT-15 colon. Also, the TGI is greater than 100 µM in the assay with HOP-92 NSCLC; greater than 100 µM with HT29 colon; greater than 100 µM in the assay with MOLT-4 leukemia; 87.9 µM with RPMI-8226 leukemia; greater than 100 µM with SF-268 CNS; greater than 100 µM with SF-295 CNS. Also, the TGI in the assay with SW-620 colon, in the assay on UACC-62 melanoma and in the assay on UO-31 renal was greater than 100 µM each time.

On to `COC(=O)C1(C)CCCC2(C)C3CCC4CC3(C=C4CO)CCC12` (stereo not given), for which the TGI was greater than 100 µM in the assay on A549 NSCLC; greater than 100 µM with COLO 205 colon; greater than 100 µM with EKVX NSCLC; greater than 100 µM in the assay on HCC-2998 colon; greater than 100 µM in the assay with HCT-116 colon; 34.9 µM in the assay with HCT-15 colon. For the same compound, the TGI with HOP-92 NSCLC was greater than 100 µM; in the assay on HT29 colon, 30.9 µM; in the assay on MOLT-4 leukemia, 76.4 µM; with RPMI-8226 leukemia, 48.6 µM; in the assay on SF-268 CNS, greater than 100 µM; in the assay with SF-295 CNS, greater than 100 µM. For the same compound, the TGI with SW-620 colon, in the assay on UACC-62 melanoma and in the assay with UO-31 renal was greater than 100 µM each time.

On to `CC(C)CCCC(C)[C@H]1CC[C@H]2[C@@H]3CC[C@H]4C[C@@H](CCC=C(c5cc(Cl)c(O)c(C(=O)O)c5)c5cc(Cl)c(O)c(C(=O)O)c5)CC[C@]4(C)[C@H]3CC[C@]12C` (stereo not given in full) (tested in a mixture with another compound), for which the TGI in the assay on A549 NSCLC, with COLO 205 colon, in the assay on EKVX NSCLC, with HCC-2998 colon, in the assay with HCT-116 colon and with HCT-15 colon was greater than 50 µM throughout. The TGI in the assay with HOP-92 NSCLC, in the assay with HT29 colon, in the assay on MOLT-4 leukemia, in the assay on RPMI-8226 leukemia, in the assay on SF-268 CNS and with SF-295 CNS was greater than 50 µM each time. Besides, the TGI was greater than 50 µM with SW-620 colon, greater than 50 µM in the assay on UACC-62 melanoma and 27.2 µM in the assay on UO-31 renal.

Regarding `COC(=O)CCC(C)C1CCC2C3CCC4CC5CCC4(C)C3(O5)C(Br)C(Br)C12C` (stereo not given), the TGI with A549 NSCLC, in the assay with COLO 205 colon, in the assay with EKVX NSCLC, in the assay with HCC-2998 colon, in the assay with HCT-116 colon and in the assay with HCT-15 colon was greater than 100 µM each time. For the same compound, the TGI in the assay on HOP-92 NSCLC, in the assay on HT29 colon, in the assay with MOLT-4 leukemia, in the assay on RPMI-8226 leukemia, in the assay with SF-268 CNS and in the assay with SF-295 CNS was greater than 100 µM throughout. Besides, the TGI in the assay on SW-620 colon, with UACC-62 melanoma and in the assay with UO-31 renal was greater than 100 µM in each case.

For `CC1CC(C)(O)CC(C(O)CC2CC(=O)NC(=O)C2)C1=O` (stereo not given), the TGI worked out at 7.19 µM with A549 NSCLC; 1.01 µM with COLO 205 colon; 3.45 µM in the assay with EKVX NSCLC; 1.59 µM with HCC-2998 colon; 0.704 µM with HCT-116 colon; 2.94 µM in the assay on HCT-15 colon. Also, the TGI in the assay with HOP-92 NSCLC is 0.625 µM; with HT29 colon, 1.61 µM; in the assay with MOLT-4 leukemia it was 0.229 µM; in the assay on RPMI-8226 leukemia, 0.564 µM; with SF-268 CNS, greater than 69.3 µM; with SF-295 CNS it was 0.142 µM. The values for the TGI in the assay with SW-620 colon, in the assay on UACC-62 melanoma and in the assay with UO-31 renal were 1.53 µM, 0.62 µM and 1.16 µM, respectively.

On to `CCOC(=O)C1=NN(c2ccccc2)C2=CC(C)=NN(C)C(=S)N21`, for which the TGI in the assay with A549 NSCLC, with COLO 205 colon, in the assay on EKVX NSCLC, in the assay on HCC-2998 colon, in the assay with HCT-116 colon and in the assay with HCT-15 colon was greater than 100 µM in each case. The TGI in the assay with HOP-92 NSCLC, with HT29 colon, in the assay on MOLT-4 leukemia, in the assay on RPMI-8226 leukemia, in the assay on SF-268 CNS and with SF-295 CNS was greater than 100 µM in each case. Further, the TGI in the assay with SW-620 colon, in the assay with UACC-62 melanoma and in the assay with UO-31 renal was greater than 100 µM in each case.

Regarding `CN(C)CCCNc1ccc2nnn3c4ccc(OC(=O)c5ccc([N+](=O)[O-])cc5)cc4c(=O)c1c23`, the TGI with A549 NSCLC came out at 20.6 µM; with COLO 205 colon, 18.2 µM; in the assay on EKVX NSCLC, 25.1 µM; with HCC-2998 colon, 25.5 µM; in the assay on HCT-116 colon it was 32.7 µM; with HCT-15 colon, 24.1 µM. Also, the TGI in the assay with HOP-92 NSCLC was greater than 57.6 µM; in the assay on HT29 colon it was 20.6 µM; in the assay with MOLT-4 leukemia, 33.2 µM; in the assay on RPMI-8226 leukemia, 18.6 µM; with SF-268 CNS it was 21.9 µM; in the assay on SF-295 CNS, 20.5 µM. For the same compound, the TGI was 17 µM with SW-620 colon, 37 µM in the assay with UACC-62 melanoma and 21 µM with UO-31 renal.
